The source of these data is patent US8207176B2 (Glaxo Group Limited, priority 2005, dated 2012).

For data set [1], the target named is T1, Recombinant human p38α (MKK6-activated) (Homo sapiens, UniProt Q16539).
T1 construct: His; made in house
Kind of data set: Time-resolved fluorescence resonance energy transfer (TR-FRET) kinase assay (standard or low volume). The arrangement: key: Compounds are considered active in this assay if they demonstrate a pIC50 of greater than 4.6 up to about a pIC50 of greater than 10.0. The note with it: MKK6-activated p38α 100 pM, GST-ATF2 400 nM, 120 minutes at room temperature; either assay format. It counts as biochemical. On the procedure: It is noted that there are two assay formats shown above for the Fluorescence anisotropy kinase binding assay. The only difference between these two assays is the volume used and the plate type. […] The results described herein may have been performed in either assay format and are not differentiated as to which. […] TR-FRET Assay Time-Resolved Fluorescence Resonance Energy Transfer Kinase Standard Assay Recombinant human p38α was expressed as a His-tagged protein. To activate this protein, 3 μM unactivated p38α was incubated in 200 mM Hepes pH 7.4, 625 mM NaCl, 1 mM DTT with 27 nM active MKK6 (Upstate), 1 mM ATP and 10 mM MgCl2 The activity of the MKK6-activated p38α was assessed using a time-resolved fluorescence resonance energy transfer (TR-FRET) assay. Biotinylated-GST-ATF2 (residues 19-96, 400 nM final), ATP ([…]) and MgCl2 (5 mM final) in assay buffer (40 mM HEPES pH 7.4, 1 mM DTT) were added to wells containing 1 ul of various concentrations of compound or DMSO vehicle (3% final) in NUNC 384 well black plate. The reaction was initiated by the addition of MKK6-activated p38 (100 pM final) to give a total volume of 30 ul. The reaction was incubated for 120 minutes at room temperature, then terminated by the addition of 15 μl of 100 mM EDTA pH 7.4. Detection reagent (15 μl) in buffer (100 mM HEPES pH 7.4, 150 mM NaCl, 0.1% w/v BSA, 1 mM DTT) containing antiphosphothreonine-ATF2-71 polyclonal antibody (Cell Signalling Technology, Beverly Mass., USA) labelled with W-1024 europium chelate (Wallac OY, Turku, Finland), and APC-labelled streptavidin (Prozyme, San Leandro, Calif., USA) was added and the reaction was further incubated for 60 minutes at room temperature. The degree of phosphorylation of GST-ATF2 was measured using a Packard Discovery plate reader (Perkin-Elmer Life Sciences, Pangbourne, UK) as a ratio of specific 665 nm energy transfer signal to reference europium 620 nm signal. Time-Resolved Fluorescence Resonance Energy Transfer Kinase Low Volume Assay Recombinant human p38α was expressed as a His-tagged protein. To activate this protein, 3 μM unactivated p38α was incubated in 200 mM Hepes pH7.4, 625 mM NaCl, 1 mM DTT with 27 nM active MKK6 (Upstate), 1 mM ATP and 10 mM MgCl2 The activity of the MKK6-activated p38α was assessed using a time-resolved fluorescence resonance energy transfer (TR-FRET) assay. Biotinylated-GST-ATF2 (residues 19-96, 400 nM final), ATP (125 μM final) and MgCl2 ([…]) in assay buffer (40 mM HEPES pH 7.4, 1 mM DTT) were added to wells containing 0.1 μl of various concentrations of compound or DMSO vehicle (1.7% final) in Greiner low volume 384 well black plate. The reaction was initiated by the addition of MKK6-activated p38α (100 pM final) to give a total volume of 6 μl. The reaction was incubated for 120 minutes at room temperature, then terminated by the addition of 3 μl of detection reagent in buffer (100 mM HEPES pH 7.4, 150 mM NaCl, 0.1% w/v BSA, 1 mM DTT, 100 mM EDTA) containing antiphosphothreonine-ATF2-71 polyclonal antibody (Cell Signalling Technology, Beverly Mass., USA) labelled with W-1024 europium chelate (Wallac OY, Turku, Finland), and APC-labelled streptavidin (Prozyme, San Leandro, Calif., USA). The reaction was further incubated for 60 minutes at room temperature. The degree of phosphorylation of GST-ATF2 was measured using a BMG Rubystar plate reader (BMG, UK) as a ratio of specific 665 nm energy transfer signal to reference europium 620 nm signal. It is noted that there are two assay formats shown above for the Time-resolved fluorescence resonance energy transfer kinase assay. The only difference between these two assays is the volume used and the plate type. […] The results described herein may have been performed in either assay format and are not differentiated as to which. […] For purposes herein the HTRF assay and the Fluorescence anisotropy kinase binding assay: […]
Background: TR-FRET usually uses a lanthanide donor and a delayed reading to cut background.

Data set [2] concerns influx of neutrophils to the lung in LPS-challenged rats. Kind of data set: Rat LPS neutrophilia model. The format is in vivo. The note with it: intratracheal, LPS aerosol 100 ug/ml 15 min, lavage 4 hours later, in at least one of the range of conditions tested, significant p<0.05, nonsignificant p>0.05. An outline of the steps: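 Compound was given intratracheally (200 ul, suspension or dry powder) 15 min–24 hours before a 15 min aerosol of LPS (100 ug/ml). Bronchoalveolar lavage was taken 4 hours after challenge for differential cell counts. Values are % inhibition of neutrophils versus no-compound controls at a given concentration and pretreat time.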

T1 sequence (Q16539 whole entry): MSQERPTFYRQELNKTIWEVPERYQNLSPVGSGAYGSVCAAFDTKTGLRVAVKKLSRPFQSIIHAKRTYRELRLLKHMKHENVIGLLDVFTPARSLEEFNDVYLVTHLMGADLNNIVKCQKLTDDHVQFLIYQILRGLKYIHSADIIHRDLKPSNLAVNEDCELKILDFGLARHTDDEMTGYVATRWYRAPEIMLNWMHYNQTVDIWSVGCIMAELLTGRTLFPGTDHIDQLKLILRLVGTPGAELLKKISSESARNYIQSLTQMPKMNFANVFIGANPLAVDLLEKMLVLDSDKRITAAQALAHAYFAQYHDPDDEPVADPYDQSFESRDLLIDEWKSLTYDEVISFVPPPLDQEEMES

As a reminder, the melting point is the temperature of the solid-liquid transition. Take `Cc1ccc(C(=O)NC2CC2)cc1-c1nc(NC2CC(C)(C)NC(C)(C)C2)nc2c1ccc(=O)n2-c1c(F)cccc1F` [21(c)]: the melting point was 326.3 to 327.9 °C. As to `Cc1ccc(C(=O)NC(C)C)cc1-c1nc(NCCN(C)C)nc2c1ccc(=O)n2-c1c(F)cccc1F` [Example 117, 3-(8-(2,6-difluorophenyl)-2-{[2-(dimethylamino)ethyl]amino}-7-oxo-7,8-dihydropyrido[2,3-d]pyrimidin-4-yl)-4-methyl-N-(1-methylethyl)benzamide], the “pIC50, reported as active” value in data set [1] was “active”. Besides, in data set [2], the “inhibition of neutrophilia (neutrophil levels in lung lavage relative to no compound controls)” value is “statistically significant inhibition”. The corresponding values for `Cc1ccc(C(=O)Nc2ccc(F)cc2)cc1-c1nc(NCc2ncc[nH]2)nc2c1ccc(=O)n2-c1c(F)cccc1F` [Example 78] are “active” and “statistically significant inhibition”. Consider `CNCCNc1nc(-c2cc(C(=O)NC(C)C)ccc2C)c2ccc(=O)n(-c3c(F)cccc3F)c2n1` [Example 57, 3-(8-(2,6-difluorophenyl)-2-{[2-(methylamino)ethyl]amino}-7-oxo-7,8-dihydropyrido[2,3-d]pyrimidin-4-yl)-4-methyl-N-(1-methylethyl)benzamide], for which the “pIC50, reported as active” value in data set [1] is “active”. Besides, the “inhibition of neutrophilia (neutrophil levels in lung lavage relative to no compound controls)” value in data set [2] is listed as “statistically significant inhibition”. The corresponding values for `CCC(C)NC(=O)c1ccc(C)c(-c2nc(NCCCN(CC)CC)nc3c2ccc(=O)n3-c2c(F)cccc2F)c1` (centres unmarked) [Example 162, 3-[2-{[3-(diethylamino)propyl]amino}-8-(2,6-difluorophenyl)-7-oxo-7,8-dihydropyrido[2,3-d]pyrimidin-4-yl]-4-methyl-N-(1-methylpropyl)benzamide] are “active” and “statistically nonsignificant inhibition”.

As for `Cc1ccc(C(=O)Nc2nccs2)cc1-c1nc(NCCN(C)C)nc2c1ccc(=O)n2-c1c(F)cccc1F` [Example 109, 3-(8-(2,6-difluorophenyl)-2-{[2-(dimethylamino)ethyl]amino}-7-oxo-7,8-dihydropyrido[2,3-d]pyrimidin-4-yl)-4-methyl-N-1,3-thiazol-2-ylbenzamide], the “pIC50, reported as active” value in data set [1] is given as “active”. Also, the “inhibition of neutrophilia (neutrophil levels in lung lavage relative to no compound controls)” value in data set [2] is “statistically significant inhibition”.

On to `Cc1ccc(C(=O)NC(C)C)cc1-c1nc(N(C)CCCN(C)C)nc2c1ccc(=O)n2-c1c(F)cccc1F` [Example 34, 3-{8-(2,6-difluorophenyl)-2-[[3-(dimethylamino)propyl](methyl)amino]-7-oxo-7,8-dihydropyrido[2,3-d]pyrimidin-4-yl}-4-methyl-N-(1-methylethyl)benzamide], for which the “pIC50, reported as active” value in data set [1] was “active”. The “inhibition of neutrophilia (neutrophil levels in lung lavage relative to no compound controls)” value in data set [2] is given as “statistically significant inhibition”. Taken in the same sequence, the figures for `Cc1ccc(C(=O)NC(C)C)cc1-c1nc(N2CCC(N3CCC(C)CC3)CC2)nc2c1ccc(=O)n2-c1c(F)cccc1F` [163(c), 3-[8-(2,6-difluorophenyl)-2-(4-methyl-1,4′-bipiperidin-1′-yl)-7-oxo-7,8-dihydropyrido[2,3-d]pyrimidin-4-yl]-4-methyl-N-(1-methylethyl)benzamide] were “active” and “statistically nonsignificant inhibition”.

Regarding `Cc1ccc(C(=O)Nc2nccs2)cc1-c1nc(NCc2ncc[nH]2)nc2c1ccc(=O)n2-c1c(F)cccc1F` [79(c), 3-{8-(2,6-difluorophenyl)-2-[(1H-imidazol-2-ylmethyl)amino]-7-oxo-7,8-dihydropyrido[2,3-d]pyrimidin-4-yl}-4-methyl-N-1,3-thiazol-2-ylbenzamide], the “pIC50, reported as active” value in data set [1] was “active”. For the same molecule, in data set [2], the “inhibition of neutrophilia (neutrophil levels in lung lavage relative to no compound controls)” value was “statistically significant inhibition”. Consider `Cc1ccc(C(=O)Nc2ccc(F)cc2)cc1-c1nc(NC2CC(C)(C)NC(C)(C)C2)nc2c1ccc(=O)n2-c1c(F)cccc1F` [Example 66, 3-{8-(2,6-difluorophenyl)-7-oxo-2-[(2,2,6,6-tetramethyl-4-piperidinyl)amino]-7,8-dihydropyrido[2,3-d]pyrimidin-4-yl}-N-(4-fluorophenyl)-4-methylbenzamide], for which the “pIC50, reported as active” value in data set [1] is “active”. In addition, the “inhibition of neutrophilia (neutrophil levels in lung lavage relative to no compound controls)” value in data set [2] is “statistically significant inhibition”.

Take `Cc1ccc(C(=O)NCc2ccccc2)cc1-c1nc(NCc2ncc[nH]2)nc2c1ccc(=O)n2-c1c(F)cccc1F` [116(c), 3-{8-(2,6-difluorophenyl)-2-[(1H-imidazol-2-ylmethyl)amino]-7-oxo-7,8-dihydropyrido[2,3-d]pyrimidin-4-yl}-4-methyl-N-(phenylmethyl)benzamide]: the melting point was 185 to 190 °C (dec.). Consider `Cc1ccc(NC(=O)c2ccsc2)cc1-c1nc(NC2CC(C)(C)NC(C)(C)C2)nc2c1ccc(=O)n2-c1c(F)cccc1F` [31(e), N-(3-{8-(2,6-difluorophenyl)-7-oxo-2-[(2,2,6,6-tetramethyl-4-piperidinyl)amino]-7,8-dihydropyrido[2,3-d]pyrimidin-4-yl}-4-methylphenyl)-3-thiophenecarboxamide], for which the “pIC50, reported as active” value in data set [1] is given as “active”. Moreover, the “inhibition of neutrophilia (neutrophil levels in lung lavage relative to no compound controls)” value in data set [2] was “statistically significant inhibition”. On to `Cc1ccc(C(=O)Nc2ccc(F)cc2)cc1-c1nc(NCCN(C)C)nc2c1ccc(=O)n2-c1c(F)cccc1F` [Example 112, 3-(8-(2,6-difluorophenyl)-2-{[2-(dimethylamino)ethyl]amino}-7-oxo-7,8-dihydropyrido[2,3-d]pyrimidin-4-yl)-N-(4-fluorophenyl)-4-methylbenzamide], for which, in data set [1], the “pIC50, reported as active” value is listed as “active”. The “inhibition of neutrophilia (neutrophil levels in lung lavage relative to no compound controls)” value in data set [2] was “statistically nonsignificant inhibition”. The corresponding values for `CNC1CCN(c2nc(-c3cc(C(=O)NC(C)C)ccc3C)c3ccc(=O)n(-c4c(F)cccc4F)c3n2)CC1` [113(b), 3-{8-(2,6-difluorophenyl)-2-[4-(methylamino)-1-piperidinyl]-7-oxo-7,8-dihydropyrido[2,3-d]pyrimidin-4-yl}-4-methyl-N-(1-methylethyl)benzamide] are “active” and “statistically nonsignificant inhibition”.
